# Measured values taken from patent US9487510B2, “Substituted heterocyclic acetamides as kappa opioid receptor (KOR) agonists” (Dr. Reddy's Laboratories Ltd., priority 2012, dated 2016).
# Legend:
# human KOR receptor = human KOR receptor (Homo sapiens, UniProt P41145); experiment: IP-One HTRF assay, potency of KOR agonists, dose-response in transiently transfected COS-7 cells; format: cell-based
# human KOR receptor, sequence (P41145 whole entry): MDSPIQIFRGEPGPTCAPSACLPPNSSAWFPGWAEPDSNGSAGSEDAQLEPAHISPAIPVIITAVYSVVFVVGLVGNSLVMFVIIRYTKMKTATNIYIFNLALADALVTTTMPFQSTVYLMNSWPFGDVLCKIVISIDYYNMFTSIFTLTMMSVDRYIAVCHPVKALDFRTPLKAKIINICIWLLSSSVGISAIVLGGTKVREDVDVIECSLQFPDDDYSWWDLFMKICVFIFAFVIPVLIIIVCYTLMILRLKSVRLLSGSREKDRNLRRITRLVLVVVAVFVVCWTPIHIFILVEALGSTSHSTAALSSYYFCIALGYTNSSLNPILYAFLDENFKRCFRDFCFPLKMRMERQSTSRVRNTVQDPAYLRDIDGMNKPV
Compound,melting point,EC50 (human KOR receptor)
O=C(Cc1ccc2ccc(=O)[nH]c2c1)N[C@H](CN1CC[C@H](O)C1)c1ccccc1,174 to 176 °C,–
O=C1Cc2ccc(CC(=O)N[C@H](CN3CC[C@H](O)C3)c3ccccc3)cc2N1,207 to 209 °C,–
"Cn1c(=O)oc2ccc(CC(=O)N[C@H](CN3CCC(O)C3)c3ccccc3)cc21 (stereo in doubt) [Example 45, N-((S)-2-((S)-3-hydroxypyrrolidin-1-yl)-1-phenylethyl)-2-(3-methyl-2-oxo-2,3-dihydrobenzo[d]oxazol-5-yl)acetamide]",105 to 106 °C,≤ 50 nM
"O=C(Cc1ccc2[nH]c(=O)ccc2c1)N[C@H](CN1CCC(O)C1)c1ccccc1 (stereo in doubt) [Example 51, N-((S)-2-((R)-3-hydroxypyrrolidin-1-yl)-1-phenylethyl)-2-(2-oxo-1,2-dihydroquinolin-6-yl)acetamide]",196 to 198 °C,101 to 1000 nM
"CN(C(=O)Cc1ccc2oc(=O)[nH]c2c1)[C@H](CN1CCC(O)C1)c1cccc(OCC(=O)OC(C)(C)C)c1 (stereo in doubt) [Example 77, Tert-butyl 2-(3-((S)-2-((R)-3-hydroxypyrrolidin-1-yl)-1-(N-methyl-2-(2-oxo-2,3-dihydrobenzo[d]oxazol-5-yl)acetamido)ethyl)phenoxy)acetate]",124 to 125 °C,≤ 50 nM
"CN(C(=O)Cc1ccc2oc(=O)[nH]c2c1)C(CN1CCCC1)c1cccc(OCC(=O)O)c1 (stereo in doubt) [Example 90, (R)-2-(3-(1-(N-methyl-2-(2-oxo-2,3-dihydrobenzo[d]oxazol-5-yl)acetamido)-2-(pyrrolidin-1-yl)ethyl)phenoxy)acetic acid]",227 to 229 °C,51 to 100 nM
"CN(C(=O)Cc1ccc2oc(=O)[nH]c2c1)[C@H](CN1CCC(O)C1)c1cccc(OCC(=O)O)c1.Cl (stereo in doubt) [Example 96, 2-(3-((S)-2-((R)-3-hydroxypyrrolidin-1-yl)-1-(N-methyl-2-(2-oxo-2,3-dihydrobenzo[d]oxazol-5-yl)acetamido)ethyl)phenoxy)acetic acid]",95 to 96 °C,≤ 50 nM
"CN(C(=O)Cc1ccc2oc(=O)[nH]c2c1)[C@H](CN1CCC(O)C1)c1cccc(-c2nn[nH]n2)c1 (stereo in doubt) [Example 99, N-((S)-1-(3-(2H-tetrazol-5-yl)phenyl)-2-((S)-3-hydroxypyrrolidin-1-yl)ethyl)-N-methyl-2-(2-oxo-2,3-dihydrobenzo[d]oxazol-5-yl)acetamide]",228 to 230 °C,≤ 50 nM
"O=C(Cc1ccc2oc(=O)n(Cc3cccc(-c4nn[nH]n4)c3)c2c1)N[C@H](CN1CCC(O)C1)c1ccccc1 (stereo in doubt) [Example 102, 2-(3-(3-(2H-tetrazol-5-yl)benzyl)-2-oxo-2,3-dihydrobenzo[d]oxazol-5-yl)-N-((S)-2-((S)-3-hydroxypyrrolidin-1-yl)-1-phenylethyl)acetamide]",235 to 237 °C,≤ 50 nM
"CN(C(=O)Cc1ccc2oc(=O)n(Cc3cccc(-c4nn[nH]n4)c3)c2c1)[C@H](CN1CCC(O)C1)c1ccccc1 (stereo in doubt) [Example 103, 2-(3-(3-(2H-tetrazol-5-yl)benzyl)-2-oxo-2,3-dihydrobenzo[d]oxazol-5-yl)-N-((S)-2-((S)-3-hydroxypyrrolidin-1-yl)-1-phenylethyl)-N-methylacetamide]",123 to 125 °C,≤ 50 nM
"CN(C(=O)Cc1ccc2oc(=O)n(Cc3ccc(-c4nnn[nH]4)cc3)c2c1)[C@H](CN1CCC(O)C1)c1ccccc1 (stereo in doubt) [Example 104, 2-(3-(4-(1H-tetrazol-5-yl)benzyl)-2-oxo-2,3-dihydrobenzo[d]oxazol-5-yl)-N-((S)-2-((S)-3-hydroxypyrrolidin-1-yl)-1-phenylethyl)-N-methylacetamide]",218 to 220 °C,≤ 50 nM
"CN(C(=O)Cc1ccc2oc(=O)n(C)c2c1)[C@H](CN1CCC(O)C1)c1cccc(-c2nn[nH]n2)c1 (stereo in doubt) [Example 107, N-((S)-1-(3-(2H-tetrazol-5-yl)phenyl)-2-((S)-3-hydroxypyrrolidin-1-yl)ethyl)-N-methyl-2-(3-methyl-2-oxo-2,3-dihydrobenzo[d]oxazol-5-yl)acetamide]",130 to 132 °C,≤ 50 nM
"CN1C(=O)Cc2ccc(CC(=O)N(C)[C@H](CN3CCC(O)C3)c3cccc(-c4nn[nH]n4)c3)cc21 (stereo in doubt) [Example 111, N-((S)-1-(3-(2H-tetrazol-5-yl)phenyl)-2-((S)-3-hydroxypyrrolidin-1-yl)ethyl)-N-methyl-2-(1-methyl-2-oxoindolin-6-yl)acetamide]",198 to 200 °C,≤ 50 nM
"CN(C(=O)Cc1ccc2c(c1)NC(=O)C2)[C@H](CN1CC[C@H](O)C1)c1ccccc1 [Example 1, N-((S)-2-((S)-3-hydroxypyrrolidin-1-yl)-1-phenylethyl)-N-methyl-2-(2-oxoindolin-6-yl)acetamide]",166 to 168 °C,51 to 100 nM
"O=C(Cc1ccc2oc(=O)n(Cc3ccccc3)c2c1)N[C@H](CN1CCCC1)c1cccc(O)c1 [Example 20, (S)-2-(3-benzyl-2-oxo-2,3-dihydrobenzo [d]oxazol-5-yl)-N-(1-(3-hydroxyphenyl)-2-(pyrrolidin-1-yl)ethyl)acetamide]",104 to 106 °C,≤ 50 nM
"N#Cc1cccc(Cn2c(=O)oc3ccc(CC(=O)N[C@H](CN4CCCC4)c4ccccc4)cc32)c1 [Example 46, (S)-2-(3-(3-cyanobenzyl)-2-oxo-2,3-dihydrobenzo[d]oxazol-5-yl)-N-(1-phenyl-2-(pyrrolidin-1-yl)ethyl)acetamide]",109 to 110 °C,≤ 50 nM
"CN(C(=O)Cc1ccc2ccc(=O)[nH]c2c1)[C@H](CN1CCCC1)c1ccccc1 [Example 49, (S)-N-methyl-2-(2-oxo-1,2-dihydroquinolin-7-yl)-N-(1-phenyl-2-(pyrrolidin-1-yl)ethyl)acetamide]",170 to 172 °C,≥ 1000 nM
"O=C(Cc1ccc2oc(=O)[nH]c2c1)N[C@H](CN1CCCC1)c1ccccc1 [Example 56, (S)-2-(2-oxo-2,3-dihydrobenzo[d]oxazol-5-yl)-N-(1-phenyl-2-(pyrrolidin-1-yl)ethyl) acetamide]",129 to 130 °C,≤ 50 nM
"O=C(Cc1ccc2oc(=O)[nH]c2c1)N[C@H](CN1CC[C@H](O)C1)c1ccccc1 [Example 57, N-((S)-2-((S)-3-hydroxypyrrolidin-1-yl)-1-phenylethyl)-2-(2-oxo-2,3-dihydrobenzo[d]oxazol-5-yl)acetamide]",210 to 211 °C,≤ 50 nM
"COc1ccc(COc2cccc([C@@H](CN3CCCC3)NC(=O)Cc3ccc4oc(=O)n(Cc5ccccc5)c4c3)c2)cc1 [Example 58, (S)-2-(3-benzyl-2-oxo-2,3-dihydrobenzo[d]oxazol-5-yl)-N-(1-(3-(4-methoxybenzyloxy)phenyl)-2-(pyrrolidin-1-yl)ethyl)acetamide]",72 to 74 °C,≤ 50 nM
"N#Cc1ccc(Cn2c(=O)oc3ccc(CC(=O)N[C@H](CN4CC[C@H](O)C4)c4ccccc4)cc32)cc1 [Example 59, 2-(3-(4-cyanobenzyl)-2-oxo-2,3-dihydrobenzo[d]oxazol-5-yl)-N-((S)-2-((S)-3-hydroxypyrrolidin-1-yl)-1-phenylethyl)acetamide]",194 °C,≤ 50 nM
"Cn1c(=O)oc2ccc(CC(=O)N[C@H](CN3CCCC3)c3ccccc3)cc21 [Example 61, (S)-2-(3-methyl-2-oxo-2,3-dihydrobenzo[d]oxazol-5-yl)-N-(1-phenyl-2-(pyrrolidin-1-yl)ethyl)acetamide]",105 to 107 °C,51 to 100 nM
"CC(C)(C)OC(=O)COc1cccc([C@@H](CN2CCCC2)NC(=O)Cc2ccc3oc(=O)n(Cc4ccccc4)c3c2)c1 [Example 63, (S)-t-butyl-2-(3-(1-(2-(3-benzyl-2-oxo-2,3-dihydrobenzo[d]oxazol-5-yl)acetamido)-2-(pyrrolidin-1-yl)ethyl)phenoxy)acetate]",68 to 70 °C,≤ 50 nM
"O=C(Cc1ccc2oc(=O)[nH]c2c1)N[C@H](CN1CC[C@H](O)C1)C1CCCCC1 [Example 67, N-((S)-1-cyclohexyl-2-((S)-3-hydroxypyrrolidin-1-yl)ethyl)-2-(2-oxo-2,3-dihydrobenzo[d]oxazol-5-yl)acetamide]",173 to 174 °C,≤ 50 nM
"CN(C(=O)Cc1ccc2oc(=O)n(Cc3ccccc3)c2c1)[C@H](CN1CCCC1)c1cccc(OCC(=O)OC(C)(C)C)c1 [Example 68, (S)-tert-butyl-2-(3-(1-(2-(3-benzyl-2-oxo-2,3-dihydrobenzo[d]oxazol-5-yl)-N-methylacetamido)-2-(pyrrolidin-1-yl)ethyl)phenoxy)acetate]",111 to 113 °C,≤ 50 nM
"O=C1Cc2ccc(CC(=O)N[C@H](CN3CC[C@H](O)C3)C3CCCCC3)cc2N1 [Example 69, N-((S)-1-cyclohexyl-2-((S)-3-hydroxypyrrolidin-1-yl)ethyl)-2-(2-oxoindolin-6-yl)acetamide]",132 to 133 °C,≤ 50 nM
"CN(C(=O)Cc1ccc2oc(=O)[nH]c2c1)[C@H](CN1CC[C@H](O)C1)C1CCCCC1 [Example 70, N-((S)-1-cyclohexyl-2-((S)-3-hydroxypyrrolidin-1-yl)ethyl)-N-methyl-2-(2-oxo-2,3dihydrobenzo[d]oxazol-5-yl)acetamide]",130 to 131 °C,≤ 50 nM
"CN(C(=O)Cc1ccc2sc(=O)[nH]c2c1)[C@H](CN1CC[C@H](O)C1)c1cccc(C(=O)NCC(F)(F)F)c1 [Example 228, 3-((S)-2-((S)-3-hydroxypyrrolidin-1-yl)-1-(N-methyl-2-(2-oxo-2,3-dihydrobenzo[d]thiazol-5-yl)acetamido)ethyl)-N-(2,2,2-trifluoroethyl)benzamide]",–,≤ 50 nM
